Measurements from US6740500B1, “Method of screening for non-steroidal neuropsychiatric agents” (priority 2000, dated 2004).

Key:
[1] = system: brain ALLO content; assay: Brain ALLO content after fluoxetine in normal and ADX/CX male rats; type: in vivo, rat
[2] = system: ALLO content in rat brain slices; assay: ALLO content in vitro in rat brain slices; type: cell-based
Excerpt: Presumably, this effect was mediated via an inhibition of the oxidative function of the 3α-HSOR by the FGIN-1 drugs. Such an effect would lead to the accumulation of ALLO, since the reverse step—the reduction of 5α-DHP to ALLO was not affected by these compounds. Similar results were obtained in brain slices of ADX/CX rats.

[3] = system: ALLO in the cerebrospinal fluid (CSF); assay: CSF neurosteroid content in patients with unipolar major depression after SSRI treatment; type: in vivo, human; details: 8-10 weeks of treatment
[4] = system: socially isolated mice; assay: Social-isolation stress mice: brain ALLO content and barbiturate-induced sleeping time; type: in vivo; details: single injection 2.6 μmol/Kg i.p.
[5] = system: γ-aminobutyric acid type A (GABAA) receptor; details: at low nanomolar concentrations; cited from earlier work

Compound | increase of brain ALLO content ([1]; 5-20 mg/kg, i.p., normal and ADX/CX male rats) | brain ALLO content after fluoxetine ([1]; ADX/CX rats, increase from 2 pmol/g) [pmol/g] | dose and time dependence of effect on brain ALLO content ([1]; also after protracted fluoxetine treatment) | brain ALLO content after fluoxetine ([1]; normal rats, increase from 3 pmol/g tissue) [pmol/g tissue] | brain region specificity of ALLO increase ([1]; rat brain regions) | ALLO content in rat brain slices [2] | concentration of ALLO in CSF [3] | brain content of ALLO and barbiturate-sleeping time ([4]; group-housed mice) | barbiturate-sleeping time ([4]; socially isolated mice) | brain content of ALLO ([4]; socially isolated mice) | modulation of GABAA receptor function [5]
CNCCC(Oc1ccc(C(F)(F)F)cc1)c1ccccc1 (centres unmarked) [fluoxetine] | 2-3 fold | 8 | dose- and time-dependent | 9 | most pronounced ALLO increase occurring in the olfactory bulb, cortex, and hippocampus | could increase ALLO content | significantly increased | without altering | normalized | normalized | 
CC(=O)[C@H]1CC[C@H]2[C@@H]3CC[C@H]4C[C@H](O)CC[C@]4(C)[C@H]3CC[C@]12C [ALLO, 5α-pregnan-3α-ol-20-one] |  |  |  |  |  |  |  |  |  |  | positively modulates
